Source: patent US10335454B2, “Combination and use” (HELPERBY THERAPEUTICS LIMITED, priority 2014, dated 2019)

Key:
[1] = tested on: log phase NDM-1 E. coli (BAA2469 strain); experiment: Time-kill of suloctidil and colistin, alone and in combination, against log phase NDM-1 E. coli; format: cell-based; conditions: FIGS. 28 to 34
Procedure: Materials and Methods • Bacterial strain used: BAA2469 strain of NDM-1 E. coli • Growth of bacteria: Log phase growth of bacteria was carried out according to methods known in the art.
(§1) (i) Suloctidil was obtained from a commercial source and dissolved in DMSO to make a stock concentration of 10 mg/ml.
(§2) (ii) Colistin was obtained from a commercial source at a concentration of 20 mg/ml.
Both suloctidil and colistin were then added to 96 well plates either alone or in the combinations shown below in Table 2.
(§3) The overnight culture was diluted with nutrient broth (Oxoid) to 10^7 CFU/ml and 280 μl and 290 μl of the culture was added to each combination well and single agent well, respectively, to make a final […] of 300 μl. Incubation of the compounds with the bacterial suspension was carried out for 24 hours. At 0, 2, 4, 7 and 25 hours, CFU counts were performed to measure the kill effects of the drug combination.

[2] = tested on: log phase NDM-1 Klebsiella pneumoniae (NCTC 13443 strain); experiment: Time-kill of suloctidil and colistin, alone and in combination, against log phase NDM-1 Klebsiella pneumoniae; format: cell-based; conditions: for kill effect (CFU counts): colistin alone 16 μg/ml, FIG. 19
Procedure: The synergistic effect of suloctidil in combination with colistin was tested against log phase NDM-1 Klebsiella pneumoniae using time-kill methods over a period of 24 hours.
Bacterial strain used: NCTC 13443 strain of NDM-1 Klebsiella pneumoniae
Growth of bacteria: Log phase growth of the bacteria was carried out according to methods known in the art.
as §1, §2
Both suloctidil and colistin were then added to 96 well plates either alone or in the combinations shown below in Table 1.
as §3

Molecule: CCCCCCCCNC(C)C(O)c1ccc(SC(C)C)cc1 (centres unmarked) [suloctidil]
- antimicrobial effect when used alone ([1]; suloctidil alone at 16, 8 and 4 μg/ml): no antimicrobial effect
- antimicrobial effect when used alone ([2]; suloctidil alone at 32, 16, 8 and 4 μg/ml, time-kill, FIGS. 18 to 27): no antimicrobial effect

Molecule: colistin
- antimicrobial effect when used alone ([1]; colistin alone at 8, 4, 2 and 1 μg/ml): no antimicrobial effect
- kill effect (CFU counts) ([2]; after 7 hours): complete kill
- kill effect (CFU counts) ([2]; after 25 hours): bacteria re-growth
- antimicrobial effect when used alone ([2]; colistin alone at 8 and 4 μg/ml, time-kill, FIGS. 20, 21, 24, 25 and 27): no antimicrobial effect
- duration of the antimicrobial effect ([2]; colistin alone at 32 and 16 μg/ml, time-kill): not long term
- antimicrobial effect when used alone ([2]; colistin alone at 32 and 16 μg/ml, time-kill, FIGS. 18, 19, 22, 23 and 26): antimicrobial effect
